In paper PMC5812813 (Journal of the American Chemical Society, 2018):
Where two headings read alike, the source gives them in different places.

Key:
CYP2D6 [1] = biological target: T1, CYP2D6 (Homo sapiens, UniProt P10635); conditions: cited from earlier work
CYP2B6 [2] = biological target: T2, CYP2B6 (Homo sapiens, UniProt P20813); conditions: cited from earlier work
T2 sequence (P20813 1-491): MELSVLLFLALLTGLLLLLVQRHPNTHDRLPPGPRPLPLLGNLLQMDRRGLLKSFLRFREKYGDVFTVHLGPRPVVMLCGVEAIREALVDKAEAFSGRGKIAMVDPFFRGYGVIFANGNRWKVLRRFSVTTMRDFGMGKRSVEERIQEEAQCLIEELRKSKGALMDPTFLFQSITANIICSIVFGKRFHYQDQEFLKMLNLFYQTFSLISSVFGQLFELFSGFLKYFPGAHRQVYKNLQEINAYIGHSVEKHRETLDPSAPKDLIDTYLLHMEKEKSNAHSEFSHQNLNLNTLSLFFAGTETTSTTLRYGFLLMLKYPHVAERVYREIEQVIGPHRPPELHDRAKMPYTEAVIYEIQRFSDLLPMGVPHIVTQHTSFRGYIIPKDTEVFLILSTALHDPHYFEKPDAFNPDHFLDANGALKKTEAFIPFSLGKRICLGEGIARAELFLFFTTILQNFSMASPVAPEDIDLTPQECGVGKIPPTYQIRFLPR

CYP2C9 [3] = biological target: T3, CYP2C9 (Homo sapiens, UniProt P11712); conditions: cited from earlier work
CYP2C8 [4] = biological target: T4, CYP2C8 (Homo sapiens, UniProt P10632); conditions: cited from earlier work
T4 sequence (P10632 1-490): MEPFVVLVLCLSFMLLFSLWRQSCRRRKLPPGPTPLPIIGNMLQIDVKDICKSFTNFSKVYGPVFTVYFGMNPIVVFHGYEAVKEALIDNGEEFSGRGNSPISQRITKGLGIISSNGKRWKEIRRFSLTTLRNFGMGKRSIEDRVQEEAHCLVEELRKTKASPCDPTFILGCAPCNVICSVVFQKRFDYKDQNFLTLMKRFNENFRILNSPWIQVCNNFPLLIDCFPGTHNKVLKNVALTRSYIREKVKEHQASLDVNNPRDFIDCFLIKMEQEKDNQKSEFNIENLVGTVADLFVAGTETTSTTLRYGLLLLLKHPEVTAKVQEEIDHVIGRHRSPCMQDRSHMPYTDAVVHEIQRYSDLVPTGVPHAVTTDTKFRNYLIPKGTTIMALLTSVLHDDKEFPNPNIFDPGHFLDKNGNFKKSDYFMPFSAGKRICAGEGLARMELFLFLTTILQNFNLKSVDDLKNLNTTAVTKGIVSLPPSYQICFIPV

hERG channel [5] = biological target: T5, hERG channel (Homo sapiens, UniProt Q12809); conditions: cited from earlier work
CYP3A [6] = conditions: cited from earlier work
[7] = biological target: T6, ornithine aminotransferase (OAT) (Homo sapiens, UniProt P04181); conditions: cited from earlier work
T6 sequence (P04181 36-439 limits assumed): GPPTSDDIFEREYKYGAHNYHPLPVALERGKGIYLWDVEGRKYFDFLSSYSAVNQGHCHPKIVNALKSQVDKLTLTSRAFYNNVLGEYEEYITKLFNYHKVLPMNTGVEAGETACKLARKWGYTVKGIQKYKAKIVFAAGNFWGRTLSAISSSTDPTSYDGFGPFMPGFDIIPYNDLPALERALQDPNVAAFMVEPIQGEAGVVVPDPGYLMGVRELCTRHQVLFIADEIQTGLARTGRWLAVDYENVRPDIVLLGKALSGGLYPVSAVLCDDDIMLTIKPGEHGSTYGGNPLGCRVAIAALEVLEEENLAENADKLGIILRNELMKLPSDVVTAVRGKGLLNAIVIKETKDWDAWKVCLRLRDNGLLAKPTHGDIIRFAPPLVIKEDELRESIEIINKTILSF

[8] = biological target: T7, aspartate aminotransferase (Asp-AT) (Sus scrofa, UniProt P00503); conditions: cited from earlier work
infantile spasms = conditions: cited from earlier work
[9] = system: hippocampus glucose metabolism; conditions: previously tested in similar tests; cited from earlier work
CYP1A [10] = biological target: T8, CYP1A (Homo sapiens, UniProt P05177); conditions: cited from earlier work
T8 sequence (P05177 1-516): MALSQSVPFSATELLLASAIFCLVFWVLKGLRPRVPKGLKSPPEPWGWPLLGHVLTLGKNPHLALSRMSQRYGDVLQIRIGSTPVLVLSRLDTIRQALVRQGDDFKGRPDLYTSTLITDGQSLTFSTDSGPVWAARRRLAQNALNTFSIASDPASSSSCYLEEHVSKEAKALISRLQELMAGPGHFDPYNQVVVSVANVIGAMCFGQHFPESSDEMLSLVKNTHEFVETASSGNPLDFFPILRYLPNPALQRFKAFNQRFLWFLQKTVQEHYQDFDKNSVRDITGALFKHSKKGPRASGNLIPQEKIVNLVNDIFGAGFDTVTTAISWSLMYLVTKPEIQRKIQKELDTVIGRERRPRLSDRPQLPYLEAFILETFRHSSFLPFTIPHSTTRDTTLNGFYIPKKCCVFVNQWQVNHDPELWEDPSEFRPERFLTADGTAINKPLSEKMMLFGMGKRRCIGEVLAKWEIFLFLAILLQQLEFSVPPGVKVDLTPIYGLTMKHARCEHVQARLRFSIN

[11] = system: alanine aminotransferase (Ala-AT); conditions: cited from earlier work
CYP2C19 [12] = biological target: T9, CYP2C19 (Homo sapiens, UniProt P33261); conditions: cited from earlier work
[13] = system: cocaine- or nicotine-induced increases in synaptic dopamine (corpus striatum); format: in vivo, rat
CYP2B6 [14] = biological target: T2, CYP2B6; experiment: CYP2B6 inhibition; format: in vitro ADME; conditions: 10 μM
CYP1A [15] = biological target: T8, CYP1A; experiment: CYP1A inhibition; format: in vitro ADME; conditions: 10 μM
[16] = biological target: T6, ornithine aminotransferase (OAT); experiment: Time- and concentration-dependent inhibition of ornithine aminotransferase; format: biochemical
CYP2C8 [17] = biological target: T4, CYP2C8; experiment: CYP2C8 inhibition; format: in vitro ADME; conditions: 10 μM
CYP2C19 [18] = biological target: T9, CYP2C19; experiment: CYP2C19 inhibition; format: in vitro ADME; conditions: 10 μM
[19] = biological target: T7, aspartate aminotransferase (Asp-AT); experiment: Inhibition of aspartate aminotransferase; format: biochemical
[20] = system: alanine aminotransferase (Ala-AT); experiment: Inhibition of alanine aminotransferase; format: biochemical
[21] = system: 176 pharmacological targets; experiment: Cerep SpectrumScreen; conditions: 3 μM
[22] = Metabolic stability in human liver microsomes; format: in vitro ADME; conditions: 1 μM, 90 min assay time, 37 °, LC-MS/MS
Irwin = experiment: Irwin; set-up: species or system mice; conditions: mouse, in vivo, po
[23] = system: hippocampus glucose metabolism; experiment: microPET 18FDG, cocaine-induced increases in glucose metabolism; format: in vivo, rat; conditions: 5 before cocaine, statistical parametric mapping, p < 0.00001
CYP2D6 [24] = biological target: T1, CYP2D6; experiment: CYP2D6 inhibition; format: in vitro ADME; conditions: 10 μM
CYP3A [25] = experiment: CYP3A inhibition; format: in vitro ADME, human; conditions: 10 μM
[26] = Ames test for mutagenicity
hERG channel [27] = biological target: T5, hERG channel; experiment: Inhibition of the hERG channel; format: cell-based; conditions: at 10 μM
CYP2C9 [28] = biological target: T3, CYP2C9; experiment: CYP2C9 inhibition; format: in vitro ADME; conditions: 10 μM
cocaine addiction = conditions: 9-week double-blind trial; cited from earlier work
[29] = after long-term administration; cited from earlier work
[30] = 5 0.1 mg/kg prior to cocaine 10 mg/kg
[31] = 5 1.0 mg/kg prior to cocaine 10 mg/kg

T3 sequence (P11712 whole entry): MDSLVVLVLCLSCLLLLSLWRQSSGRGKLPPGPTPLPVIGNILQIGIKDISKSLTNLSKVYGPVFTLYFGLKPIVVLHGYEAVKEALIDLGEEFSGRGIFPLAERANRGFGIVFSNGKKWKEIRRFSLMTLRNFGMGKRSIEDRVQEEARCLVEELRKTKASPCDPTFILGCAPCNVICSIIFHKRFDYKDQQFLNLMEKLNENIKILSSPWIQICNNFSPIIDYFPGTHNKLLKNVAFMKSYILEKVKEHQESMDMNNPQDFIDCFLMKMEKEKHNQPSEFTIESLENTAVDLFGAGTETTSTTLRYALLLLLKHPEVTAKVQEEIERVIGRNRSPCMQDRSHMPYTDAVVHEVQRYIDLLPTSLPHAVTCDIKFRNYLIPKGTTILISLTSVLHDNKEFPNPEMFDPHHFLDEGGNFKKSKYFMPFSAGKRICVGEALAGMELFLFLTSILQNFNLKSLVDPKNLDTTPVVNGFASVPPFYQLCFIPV
T7 sequence (P00503 2-413): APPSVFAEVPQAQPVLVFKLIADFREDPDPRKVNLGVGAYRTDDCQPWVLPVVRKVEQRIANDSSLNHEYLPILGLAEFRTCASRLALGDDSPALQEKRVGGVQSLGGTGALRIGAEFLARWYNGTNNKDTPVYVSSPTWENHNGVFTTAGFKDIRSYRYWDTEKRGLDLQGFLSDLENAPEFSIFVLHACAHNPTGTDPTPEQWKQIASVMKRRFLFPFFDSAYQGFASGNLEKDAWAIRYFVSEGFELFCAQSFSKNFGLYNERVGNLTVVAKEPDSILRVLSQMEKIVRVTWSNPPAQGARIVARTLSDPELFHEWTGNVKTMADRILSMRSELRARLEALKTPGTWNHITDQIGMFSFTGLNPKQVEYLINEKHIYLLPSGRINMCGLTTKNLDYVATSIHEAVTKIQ
T1 sequence (P10635 whole entry): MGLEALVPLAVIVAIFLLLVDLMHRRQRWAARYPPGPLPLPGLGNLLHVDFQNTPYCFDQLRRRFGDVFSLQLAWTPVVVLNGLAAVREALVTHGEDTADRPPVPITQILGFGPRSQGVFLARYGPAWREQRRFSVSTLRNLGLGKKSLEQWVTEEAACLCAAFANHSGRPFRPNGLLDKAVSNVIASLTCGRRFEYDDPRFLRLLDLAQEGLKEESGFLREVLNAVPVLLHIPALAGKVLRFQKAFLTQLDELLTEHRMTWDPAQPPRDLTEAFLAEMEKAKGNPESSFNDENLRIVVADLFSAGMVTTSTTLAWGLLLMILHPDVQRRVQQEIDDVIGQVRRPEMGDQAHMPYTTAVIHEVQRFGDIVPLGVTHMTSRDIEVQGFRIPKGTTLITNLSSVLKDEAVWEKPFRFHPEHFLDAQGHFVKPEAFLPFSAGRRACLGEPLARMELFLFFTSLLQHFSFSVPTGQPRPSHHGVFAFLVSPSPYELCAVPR
T5 sequence (Q12809 whole entry): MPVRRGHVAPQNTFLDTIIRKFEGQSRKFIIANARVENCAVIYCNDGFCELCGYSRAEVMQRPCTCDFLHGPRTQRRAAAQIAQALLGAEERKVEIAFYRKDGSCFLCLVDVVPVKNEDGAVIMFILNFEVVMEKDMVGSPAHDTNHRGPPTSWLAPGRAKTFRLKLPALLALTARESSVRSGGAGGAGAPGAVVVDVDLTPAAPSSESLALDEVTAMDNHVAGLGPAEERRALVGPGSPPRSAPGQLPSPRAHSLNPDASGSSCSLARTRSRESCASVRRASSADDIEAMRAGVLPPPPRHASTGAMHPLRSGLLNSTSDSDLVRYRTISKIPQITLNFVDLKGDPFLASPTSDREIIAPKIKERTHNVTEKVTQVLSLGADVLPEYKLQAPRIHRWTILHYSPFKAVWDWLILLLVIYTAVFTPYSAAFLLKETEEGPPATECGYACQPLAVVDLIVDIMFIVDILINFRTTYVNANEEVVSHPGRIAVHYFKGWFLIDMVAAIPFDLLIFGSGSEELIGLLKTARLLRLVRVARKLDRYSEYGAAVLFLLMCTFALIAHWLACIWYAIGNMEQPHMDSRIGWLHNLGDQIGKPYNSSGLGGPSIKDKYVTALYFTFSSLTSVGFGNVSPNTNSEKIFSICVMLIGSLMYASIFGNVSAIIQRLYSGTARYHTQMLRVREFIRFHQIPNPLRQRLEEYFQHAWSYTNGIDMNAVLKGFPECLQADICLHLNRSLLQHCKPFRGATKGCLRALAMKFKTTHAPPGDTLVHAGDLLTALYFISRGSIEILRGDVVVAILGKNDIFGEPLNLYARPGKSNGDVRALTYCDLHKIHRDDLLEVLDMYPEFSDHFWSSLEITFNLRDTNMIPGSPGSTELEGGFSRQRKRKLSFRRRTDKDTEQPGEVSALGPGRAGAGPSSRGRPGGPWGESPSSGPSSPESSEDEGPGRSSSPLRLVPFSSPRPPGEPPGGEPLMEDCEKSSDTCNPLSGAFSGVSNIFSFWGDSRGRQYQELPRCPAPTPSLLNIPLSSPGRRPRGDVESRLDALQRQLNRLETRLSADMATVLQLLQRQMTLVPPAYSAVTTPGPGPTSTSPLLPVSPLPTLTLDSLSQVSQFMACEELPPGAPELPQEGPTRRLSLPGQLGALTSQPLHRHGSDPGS
T9 sequence (P33261 whole entry): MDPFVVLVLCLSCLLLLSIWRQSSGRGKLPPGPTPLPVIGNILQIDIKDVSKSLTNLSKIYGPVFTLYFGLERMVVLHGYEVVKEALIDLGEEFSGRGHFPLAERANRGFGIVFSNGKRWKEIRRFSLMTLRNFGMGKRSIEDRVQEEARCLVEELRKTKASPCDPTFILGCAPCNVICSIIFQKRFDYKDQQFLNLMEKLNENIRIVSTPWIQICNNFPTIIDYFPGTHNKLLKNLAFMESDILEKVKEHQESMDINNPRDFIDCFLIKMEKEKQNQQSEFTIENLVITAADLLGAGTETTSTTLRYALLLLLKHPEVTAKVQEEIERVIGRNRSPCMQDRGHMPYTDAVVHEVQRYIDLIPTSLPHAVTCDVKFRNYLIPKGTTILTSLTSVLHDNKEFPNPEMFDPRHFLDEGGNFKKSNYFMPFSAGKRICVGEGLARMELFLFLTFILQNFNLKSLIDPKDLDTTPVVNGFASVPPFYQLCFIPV

N[C@H]1C[C@@H](C(=O)O)CC1=C(F)F [CPP-115, (1S,3S)-3-amino-4-difluoromethylenyl-1-cyclopentanoic acid]
CYP inhibition or induction (CYP2D6 [1]): does not inhibit or induce
CYP inhibition or induction (CYP2B6 [2]): does not inhibit or induce
CYP inhibition or induction (CYP2C9 [3]): does not inhibit or induce
CYP inhibition or induction (CYP2C8 [4]): does not inhibit or induce
inhibition of the activity of the hERG channel (hERG channel [5]): does not inhibit
CYP inhibition or induction (CYP3A [6]): does not inhibit or induce
Ki [7]: 116 µM
inactivation or inhibition of off-target enzyme [8]: not to inactivate or inhibit
doses suppressing spasms, lower than those used for vigabatrin (infantile spasms): over 100 fold
block of cocaine-induced hippocampal metabolism [9]: did not completely block
CYP inhibition or induction (CYP1A [10]): does not inhibit or induce
inactivation or inhibition of off-target enzyme [11]: not to inactivate or inhibit
CYP inhibition or induction (CYP2C19 [12]): does not inhibit or induce

COC(=O)[C@H]1[C@@H](OC(=O)c2ccccc2)C[C@@H]2CC[C@H]1N2C [Cocaine, cocaine, reference compound]
%= (Percent inhibition of cocaine-induced increase in synaptic dopamine) ([13]; cocaine 10 mg/kg alone): −36%
ST-CB/CB ([13]; cocaine 10 mg/kg alone): 2.39 ± 0.21
reduction of [11C]-raclopride binding ([13]; cocaine 10 mg/kg alone): 36%

N[C@H]1C=C(C(=O)O)CC1=C(F)F [Compound 5, (S)-3-amino-4-(difluoromethylenyl)cyclopent-1-ene-1-carboxylic acid]
CYP inhibition or induction (CYP2B6 [14]): does not inhibit or induce
CYP inhibition or induction (CYP1A [15]): does not inhibit or induce
more effective at inhibiting GABA-AT than OAT ([16]; GABA-AT versus OAT): 44 times
efficiency as an inactivator of OAT relative to CPP-115 ([16]; ratio of kinact/KI): 9.0 times
CYP inhibition or induction (CYP2C8 [17]): does not inhibit or induce
CYP inhibition or induction (CYP2C19 [18]): does not inhibit or induce
time-dependent inhibition [19]: does not cause time-dependent inhibition
time-dependent inhibition [20]: does not cause time-dependent inhibition
IC50 ([20]; reversible inhibition): > 4000 µM
activity at 176 pharmacological targets [21]: no significant activity
metabolism in human liver microsomes [22]: No metabolism
NOAEL (Irwin): 6 mg/kg
cocaine-induced activation in the hippocampus (18FDG uptake) [23]: no activation in the hippocampus was detected
CYP inhibition or induction (CYP2D6 [24]): does not inhibit or induce
CYP inhibition or induction (CYP3A [25]): does not inhibit or induce
Ames test for mutagenicity [26]: negative
inhibition of the activity of the hERG channel (hERG channel [27]): does not inhibit
CYP inhibition or induction (CYP2C9 [28]): does not inhibit or induce
reduction of [11C]-raclopride binding ([13]; 5 0.01 mg/kg 30 minutes prior to cocaine): 20%
ST-CB/CB ([13]; 5 0.01 mg/kg 30 minutes prior to cocaine 10 mg/kg): 3.01 ± 0.44
%= (Percent inhibition of cocaine-induced increase in synaptic dopamine) ([13]; 5 0.01 mg/kg prior to cocaine 10 mg/kg): −20%
reduction of [11C]-raclopride binding ([13]; 5 0.1 mg/kg prior to cocaine): 12%
%= (Percent inhibition of cocaine-induced increase in synaptic dopamine) [13, 30]: −12%
ST-CB/CB [13, 30]: 3.31 ± 0.52
change in [11C]-raclopride binding ([13]; 5 1.0 mg/kg prior to cocaine): no significant change
%= (Percent inhibition of cocaine-induced increase in synaptic dopamine) [13, 31]: −5%
ST-CB/CB [13, 31]: 3.56 ± 2.11
reduction of [11C]-raclopride binding ([13]; 5 1.0 mg/kg prior to cocaine (comparable to control)): 5%
change in [11C]-raclopride binding ([13]; 5 1.0 mg/kg prior to nicotine): no significant change

C=CC(N)CCC(=O)O (stereo not drawn) [vigabatrin]
patients achieving abstinence (cocaine addiction): up to 28%
patients with permanent retinal damage [29]: 25–40%
block of cocaine-induced hippocampal metabolism [9]: did not completely block
